Reference: patent US10759740B2, “Antibacterial agents” (Rutgers, The State University of New Jersey, priority 2016, dated 2020)

Tests used:
L. plantarum biofilm = assay: Minimum biofilm bactericidal concentration (MBC-B); type: cell-based, Lactobacillus plantarum; conditions: pre-formed biofilm, ≥3 log reduction
Description: G. vaginalis ATCC 14019 strain was grown overnight in Brain Heart Infusion broth (Difco, Sparks, Md.) supplemented with 3% horse serum (sBHI) (JRH Biosciences, KS), while BHI supplemented with 1% glucose (BHIG) was used for biofilm formation assays. Each experiment using G. vaginalis was performed anaerobically (10% hydrogen, 5% carbon dioxide, and 85% nitrogen) within anaerobic glove boxes (Coy Laboratory Products, Inc., Grass Lake, Mich., USA). Three species of vaginal Lactobacillus were used in this study to evaluate the possible harmful effects of CAms on beneficial bacteria: Lactobacillus plantarum ATCC 39268, Lactobacillus rhamnosus 160 (provided by Dr. Aroutcheva, Rush University Medical Center) and Lactobacillus gasseri ATCC 33323; all were grown for 18-24 h in DeMan, Rogosa and Sharpe broth (MRS Difco B D, Franklin Lakes, N.J., USA) under aerobic conditions at 37° C. For lactobacilli biofilm formation, MRS broth supplemented with 1% glucose and 2% sucrose (Fisher Scientific, Waltham, Mass., USA) was utilized.
(§1) This assay was performed according to Algburi et al. (Algburi et al., 2015. Path Dis 73(5)) with minor modifications: the overnight-grown G. vaginalis was diluted to approximately 10^7 CFU/ml. For the biofilm formation assay, aliquots of 200 μl were added into a 96-well tissue culture microplate, sealed by amplification tape (Nalge Nunc International, Rochester, N.Y., USA) and incubated for 24-36 h at 37° C. After incubation, the planktonic cells were removed by gently washing the biofilm twice with 200 μl of fresh broth. The biofilm was then treated with 200 μl of a predetermined concentration of the tested compound. The microplate was incubated for 24 h at 37° C. under anaerobic conditions. After incubation, the antimicrobials (supernatant) were discarded and the biofilm was washed twice with fresh BHIG broth. The biofilm was then disrupted by vigorous pipetting, in order to determine the number of biofilm-associated cells using the spot plate method.

[1] = tested on: planktonic cells of G. vaginalis; assay: Checkerboard assay, planktonic cells; type: cell-based, Gardnerella vaginalis; conditions: for MIC of CAm in combination with metronidazole: 24 h; for MIC: read-out: MIC when used alone
Description: To evaluate the potential effectiveness of the antimicrobial combinations on planktonic and biofilm cells, a checkerboard assay was performed following Algburi et al. (Algburi et al., 2015. Path Dis 73(5)) with minor modifications. For planktonic cells, the overnight grown G. vaginalis was diluted to approximately 10^6 CFU/ml. Each antimicrobial agent was diluted twofold with sBHI broth into two separate 96-well non-tissue culture microplates. From each dilution of antimicrobial B, 50 μl was added horizontally over 50 μl of antimicrobial A. Then, 100 μl of bacterial suspension (10^6 CFU/ml) was separately added to the predetermined concentration of antimicrobial combinations. The MIC of each combination was determined after 24 h of incubation.
Isobolograms were used to compare the MIC and MBC-B values of each antimicrobial alone with its MIC and MBC-B values in combination with other antimicrobials. The point on the axis (X) refers to MIC or MBC-B values of the first antimicrobial with the coordinates (0, x), and the point on the axis (Y) represents the MIC or MBC-B values of the second antimicrobial with the coordinates (y, 0) when they used alone. The two MIC or MBCs-B values are connected by a dashed line (Turovskiy Y, Chikindas M L. 2011 Probiotics Antimicrob Proteins 3:144-149). The MICs or MBCs-B of each antimicrobial combination are plotted as dots on the graph. Results are expressed according to the locations of these dots from the line that connects MICs or MBCs-B of the first and second antimicrobials. When MICs or MBCs-B values are located under the line, the two combining antimicrobials are synergized, but antagonized against the tested microorganism when these dots of interaction are above. An additive effect is observed when these dots are located on the line.

[2] = tested on: G. vaginalis pre-formed biofilm; assay: Minimum biofilm bactericidal concentration (MBC-B); type: cell-based, Gardnerella vaginalis; conditions: 24 h, ≥3 log reduction
Description: as §1

[3] = tested on: G. vaginalis biofilm formation; assay: Minimum biofilm inhibition concentration (MIC-B), crystal violet; type: cell-based, Gardnerella vaginalis; conditions: 48 h, vs untreated control, FIG. 7
Description: The MIC-B50 of an antimicrobial is defined as the lowest concentration of the antimicrobial that inhibits 50% of treated biofilm compared to the untreated one (control), while MIC-B90 was defined as the minimum biofilm inhibitory concentration that inhibits 90% (Sandoe et al., 2006. J Antimicrob Chemother 57:767-770). G. vaginalis cells were grown overnight in sBHI broth anaerobically at 37° C. The overnight culture was diluted in BHIG broth 1:100 (v:v) to achieve ˜10^6 CFU/ml for the biofilm inhibition assay. The CAms were diluted twofold with BHIG into a 96-well tissue culture microplate (Falcon, Corning Incorporated, Corning, N.Y., USA) with a final volume of 100 μl in each well. Aliquots of 100 μl of diluted cell suspensions at 10^6 CFU/ml were added separately to different concentrations of CAms in a 96-well tissue culture microplate. The microplate was incubated for 48 h at 37° C. under anaerobic conditions. After incubation, the number of non-adherent bacterial cells was counted using a spot plate method and compared with the number of cells of the non-treated control. Then, the intact biofilm was stained with 0.1% crystal violet.
This method was performed as described by Borucki et al. with minor modifications (Borucki et al., 2003. Appl Environ Microbiol 69:7336-7342). Briefly, after counting the non-adherent cells, the biofilm was fixed at 60° C. for 60 min. in an inverted position using an incubator (New Brunswick Scientific Co., Inc., NJ, USA). In each well, 125 μl of 0.1% crystal violet was added and left at room temperature for 20 min. Each well was then rinsed three to four times with 200 μl of ddH2O and left for 15 min. to dry at room temperature. To solubilize the biofilm-stained CV, 200 μl of 95% ethanol in water was added and the microplate was incubated at 4° C. for 30 min. One hundred microliter samples of solubilized CV were transferred to a new flat-bottomed 96-well microplate. The absorbance of each sample was measured using a plate reader at 595 nm (Model 550, Bio-Rad Laboratories, Hercules, Calif., USA).

Row | SMILES | MBC-B L. plantarum (L. plantarum biofilm) [µM] | MIC of CAm in combination with metronidazole [1] [µM] | MIC [1] [µM] | MBC-B G. vaginalis [2] [µM] | MIC-B: concentration preventing 50% or >50% of biofilm formation [3] [µM]
1 | CCCCCCCCCCOC(C(=O)NCCN)C(OCCCCCCCCCC)C(=O)NCCN.Cl.Cl (stereo not drawn) [5b] | >850 | 0.2 | 1.1 | 425.6 | 1.6
2 | CCCCCCCC(=O)OC(C(=O)NCCN)C(OC(=O)CCCCCCC)C(=O)NCCN.Cl.Cl (stereo not drawn) [8a] | >890 | 3.4 | 24.4 | 117.6 | 7.2
3 | CCCCCCCCCC(=O)OC(C(=O)NCCN)C(OC(=O)CCCCCCCCC)C(=O)NCCN.Cl.Cl (stereo not drawn) [8b] | >810 | 0.2 | 10 | 425.6 | 3.2
